The assay addresses Envelope glycoprotein gp160 (Human immunodeficiency virus 1, UniProt Q6QLK5). Description: inhibitors of HIV fusion peptide binding, primary screen, biochemical, uHTS, fluorescence dequenching (AID 1986).

Calls of active or inactive are those of the source. No stated cut-off is given here; in the data, actives have a measured IC50 and inactives only a lower limit.

Chain of Envelope glycoprotein gp160 (Q6QLK5 whole entry, the tested form may be a part): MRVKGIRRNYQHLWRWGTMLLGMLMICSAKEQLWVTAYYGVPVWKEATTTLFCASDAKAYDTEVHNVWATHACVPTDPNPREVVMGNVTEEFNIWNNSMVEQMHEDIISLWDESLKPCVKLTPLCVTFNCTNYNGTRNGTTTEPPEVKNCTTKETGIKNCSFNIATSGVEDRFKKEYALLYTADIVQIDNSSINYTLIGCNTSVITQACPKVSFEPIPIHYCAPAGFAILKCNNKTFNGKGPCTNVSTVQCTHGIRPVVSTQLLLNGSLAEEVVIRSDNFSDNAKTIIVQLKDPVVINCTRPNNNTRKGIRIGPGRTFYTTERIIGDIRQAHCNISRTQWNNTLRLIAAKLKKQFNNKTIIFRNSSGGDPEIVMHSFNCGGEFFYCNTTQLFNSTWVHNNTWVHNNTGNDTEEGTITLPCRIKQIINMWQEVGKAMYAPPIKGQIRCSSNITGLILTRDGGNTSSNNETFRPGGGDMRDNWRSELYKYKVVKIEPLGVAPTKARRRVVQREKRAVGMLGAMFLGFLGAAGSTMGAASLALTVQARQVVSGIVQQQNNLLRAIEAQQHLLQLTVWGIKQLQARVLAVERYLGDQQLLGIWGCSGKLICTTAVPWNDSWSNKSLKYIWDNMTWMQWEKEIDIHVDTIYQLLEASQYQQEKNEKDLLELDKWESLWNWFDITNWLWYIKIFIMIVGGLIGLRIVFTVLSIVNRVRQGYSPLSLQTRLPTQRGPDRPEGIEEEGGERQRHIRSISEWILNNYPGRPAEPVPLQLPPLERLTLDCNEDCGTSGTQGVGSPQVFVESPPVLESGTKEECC

In general, IC50 refers to the concentration needed to halve the response being measured. As for `O=C(O)c1cc(N2N=C(C(F)(F)F)/C(=C/C=C/c3ccco3)C2=O)ccc1Cl`, the IC50 is 8.25 µM (active).
For the compound `CCN1C(=O)/C(=C\c2ccc(-c3ccc([N+](=O)[O-])cc3OC)o2)S/C1=N\c1cccc(C(=O)O)c1`, the IC50 is 29.4 µM (active).

(Values after ChEMBL document CHEMBL1201862, “PubChem BioAssay data set” (2004).)
